Data: patent US9475778B2, “Sulfate of 5-hydroxy-1H-imidazole-4-carboxamide” (FUJIFILM Corporation, priority 2013, dated 2016)

Experiments:
Assay type in all cases: physicochemical
[1] = Storage stability test (3) under conditions of 60° C. and relative humidity of 75% (mass change, color appearance); conditions: relative humidity 75%, 2 weeks; for Mass change ratio (%): glass bottle, {(A1−A0)/A0}×100
Method: Storage Stability Test (3) Under Conditions of 60° C. and Relative Humidity of 75%
As test substances, the crystals obtained in Example 2 and Comparative Example 2 were chosen.
Each test substance (about 0.3 g) was put into a glass bottle, and stored under the conditions of 60° C. and relative humidity of 75% for 2 weeks, and then mass was measured. Mass change ratio of each test substance was calculated according to the following equation. Mass change ratio(%)={(A1−A0)/A0}×100 A0: Mass (g) of test substance before test A1: Mass (g) of test substance after test
Change of color appearance of the test substances was also visually evaluated.

[2] = Storage for 2 weeks under conditions of 25° C. and relative humidity of 97%; conditions: relative humidity 97%
[3] = Storage stability test (2) under conditions of 60° C. and relative humidity of 75% (purity by HPLC); conditions: relative humidity 75%, 2 weeks
Method: The purities are represented in terms of HPLC area %. The HPLC measurement was performed by using Prominence (Shimadzu) under the following conditions.
Storage Stability Test (2) Under Conditions of 60° C. and Relative Humidity of 75%
As a test substance, the crystals obtained in Example 1 were chosen.
The test substance (about 0.3 g) was put into a glass bottle, and stored under the conditions of 60° C. and relative humidity of 75% for 2 weeks. After completion of the test, purity of the substance was measured by HPLC.

[4] = Storage stability test (1) under conditions of 60° C. and relative humidity of 75% (coloring); conditions: glass bottle, relative humidity 75%, 2 weeks, compared with crystals of Comparative Example 1
Method: Storage Stability Test (1) Under Conditions of 60° C. and Relative Humidity of 75%
As test substances, the crystals obtained in Examples 1 and 2 and Comparative Example 1 were chosen.
Each test substance (about 0.3 g) was put into a glass bottle, and stored under the conditions of 60° C. and relative humidity of 75% for 2 weeks.

Row | SMILES | Mass change ratio (%) [1] | appearance change after storage [2] | purity of the test substance after storage (HPLC) ([3]; glass bottle, HPLC area %) | coloring after storage [4] | purity after storage (in words) ([3]; evaluated in the same manner as Test Example 2) | Change of color appearance ([1]; visually evaluated)
1 | CS(=O)(=O)O.NC(=O)c1nc[nH]c1O [Comparative Example 2, Methanesulfonate of 5-hydroxy-1H-imidazole-4-carboxamide, reference compound] | +16.2% | deliquesced |  |  |  | 
2 | NC(=O)c1nc[nH]c1O.O=S(=O)(O)O [Example 1, sulfate of 5-hydroxy-1H-imidazole-4-carboxamide] |  |  | 99.97% |  |  | 
3 | NC(=O)c1nc[nH]c1O.O=S(=O)(O)O [Example 2, sulfate of 5-hydroxy-1H-imidazole-4-carboxamide] | −0.1% | did not show appearance change |  | coloring in an obviously lower degree | high purity even after the storage for 2 weeks | No change (white)
